This note sets out measurements from patent publication US10196403B2, “Compounds and compositions and uses thereof” (Sunovion Pharmaceuticals Inc., priority 2016, dated 2019).

For this test, the system named is mice. The test is described as follows: Neuropharmacological Assay (SmartCube). Type of test: in vivo. The following applies: for minimal effective dose: Mus musculus, read-out: POTENCY (minimal effective dose, MED); for minimal effective dose / POTENCY (minimal effective dose, MED): MED = dose having 50% or more total activity in SmartCube; for AD: ADHD (SmartCube probability) / AG: analgesic (SmartCube probability) / AX: anxiolytic (SmartCube probability) / CE: cognitive enhancer (SmartCube probability) / DP: anti-depressant (SmartCube probability) / MS: mood stabilizer (SmartCube probability) / PS: anti-psychotic (SmartCube probability) / SD: sedative hypnotic (SmartCube probability) / UN: uncharacterized CNS activity (SmartCube probability): mice, i.p. 15 min before test, most efficacious dose(s) of 3 doses. The text has this:
Neuropharmacological Assay (SmartCube™)
Neurosci. 2011 Sep. 9; 5:103 (doi: 10.3389/fnins.2011.00103) (“Roberds”). As reported in Roberds, because psychiatric diseases generally result from disorders of cell-cell communication, circuitry, intact systems are useful in detecting improvement in disease-relevant endpoints. These endpoints are typically behavioral in nature, often requiring human observation and interpretation. To facilitate testing of multiple compounds for behavioral effects relevant to psychiatric disease, PsychoGenics, Inc. (Tarrytown, N.Y., “PGI”) developed SmartCube™, an automated system in which behaviors of compound-treated mice are captured by digital video and analyzed with computer algorithms. (D. Brunner et al., Drug Discov. Today 2002, 7:S107-S112). PGI Analytical Systems uses data from SmartCube™ to compare the behavioral signature of a test compound to a database of behavioral signatures obtained using a large set of diverse reference compounds. (The composition of the database as well as validation of the method is further described in Roberds). In this way, the neuropharmacological effects of a test compound can be predicted by similarity to major classes of compounds, such as antipsychotics, anxiolytics and antidepressants.
The SmartCube™ system produces an activity signature indicating the probability that the activity of the test compound at the administered dose matches a given class of neuropharmacological agents. (See, e.g., Roberds, FIGS. 2 and 3). The test compound is simultaneously compared against multiple classes of agents; thus, a separate probability is generated for each behavioral effect measured (e.g., anxiolytic activity, analgesic activity, etc.). In the table below, these probabilities are reported for each behavioral effect measured as follows:
where LOQ is the limit of quantification.
Provided compounds were dissolved in a mixture of Pharmasolve™ (N-methyl-2-pyrrolidone), polyethylene glycol and propylene glycol, and were injected i.p. 15 min. before the behavioral test. For each compound, injections were administered at 3 different doses. For each behavioral effect measured, results for the most efficacious dose(s) are presented. In the table below, DP: anti-depressant; AX: anxiolytic; SD: sedative hypnotic; PS: anti-psychotic; MS: mood stabilizer; AD: ADHD; CE: cognitive enhancer; AG: analgesic; UN: uncharacterized CNS activity.
The potency of many of the compounds in the table was also determined in the SmartCube™ system. Test compounds were routinely examined at dose levels of 0.3, 1, 3 10 and 30 mg per kg (mpk), although the dose range was increased or decreased if necessary to obtain a full dose response curve. A compound's minimal effective dose (MED) is a measure of the compounds potency. The MED was defined as the dose (in mpk) having 50% or more total activity in SmartCube.

Some results are limits rather than exact numbers.

Usually minimal effective dose stands for the lowest level tested that produced the effect sought. Consider `CNC[C@@H]1OC[C@H](O)c2cccc(F)c21` [Example 99, (1R,4R)-8-fluoro-1-((methylamino)methyl)isochroman-4-ol], for which the minimal effective dose was 10 to 30 mg/kg, the “AD: ADHD (SmartCube probability)” value is “+ (LOQ≤ + <5%)”, the “AG: analgesic (SmartCube probability)” value is given as “+ (LOQ≤ + <5%)” and the “AX: anxiolytic (SmartCube probability)” value is listed as “++ (5%≤ ++ <25%)”. Also, the “CE: cognitive enhancer (SmartCube probability)” value (shortened to “CE: cognitive enhancer”) is on record as “+ (LOQ≤ + <5%)”, the “DP: anti-depressant (SmartCube probability)” value (from here on “DP: anti-depressant”) was “+ (LOQ≤ + <5%)”, the “MS: mood stabilizer (SmartCube probability)” value (from here on “MS: mood stabilizer”) is recorded as “+ (LOQ≤ + <5%)” and the “PS: anti-psychotic (SmartCube probability)” value (from here on “PS: anti-psychotic”) is on record as “++ (5%≤ ++ <25%)”. In addition, the “SD: sedative hypnotic (SmartCube probability)” value (“SD: sedative hypnotic” for short) was “++ (5%≤ ++ <25%)” and the “UN: uncharacterized CNS activity (SmartCube probability)” value (“UN: uncharacterized CNS activity” below) is reported as “+++ (25%≤ +++ <50%)”.
For the molecule `CNC[C@@H]1OCCc2cccc(Cl)c21` [Example 37, (R)-1-(8-chloroisochroman-1-yl)-N-methylmethanamine], the minimal effective dose is under 3 mg/kg, the “AD: ADHD (SmartCube probability)” value is “+ (LOQ≤ + <5%)”, the “AG: analgesic (SmartCube probability)” value is “++ (5%≤ ++ <25%)” and the “AX: anxiolytic (SmartCube probability)” value is recorded as “+ (LOQ≤ + <5%)”. In addition, the “CE: cognitive enhancer” value was “++ (5%≤ ++ <25%)”, the “DP: anti-depressant” value was “++ (5%≤ ++ <25%)”, the “MS: mood stabilizer” value is given as “+ (LOQ≤ + <5%)” and the “PS: anti-psychotic” value is on record as “++ (5%≤ ++ <25%)”. Besides, the “SD: sedative hypnotic” value is “+ (LOQ≤ + <5%)” and the “UN: uncharacterized CNS activity” value was “++++ (50%≤ ++++)”.
As for `CNC[C@H]1OCCc2ccc(Cl)cc21` [Example 64, (S)-1-(7-chloroisochroman-1-yl)-N-methylmethanamine], the “POTENCY (minimal effective dose, MED)” value is given as “A-B”; the “AD: ADHD (SmartCube probability)” value is on record as “+ (LOQ≤ + <5%)”; the “AG: analgesic (SmartCube probability)” value is “++ (5%≤ ++ <25%)”; the “AX: anxiolytic (SmartCube probability)” value is “+++ (25%≤ +++ <50%)”. The “CE: cognitive enhancer” value was “++ (5%≤ ++ <25%)”, the “DP: anti-depressant” value is “+ (LOQ≤ + <5%)”, the “MS: mood stabilizer” value is reported as “+ (LOQ≤ + <5%)” and the “PS: anti-psychotic” value was “++ (5%≤ ++ <25%)”. The “SD: sedative hypnotic” value is “++ (5%≤ ++ <25%)” and the “UN: uncharacterized CNS activity” value was “++++ (50%≤ ++++)”.
As to `CNC[C@H]1OCCc2cccc(C#N)c21` [Example 44, (S)-1-((methylamino)methyl)isochromane-8-carbonitrile], the minimal effective dose lay in the range of 3 to 10 mg/kg, the “AD: ADHD (SmartCube probability)” value was “+ (LOQ≤ + <5%)”, the “AG: analgesic (SmartCube probability)” value was “++ (5%≤ ++ <25%)” and the “AX: anxiolytic (SmartCube probability)” value is listed as “++ (5%≤ ++ <25%)”. Further, the “CE: cognitive enhancer” value is “++ (5%≤ ++ <25%)”, the “DP: anti-depressant” value was “+ (LOQ≤ + <5%)”, the “MS: mood stabilizer” value is given as “+ (LOQ≤ + <5%)” and the “PS: anti-psychotic” value is “++ (5%≤ ++ <25%)”. Further, the “SD: sedative hypnotic” value is on record as “+ (LOQ≤ + <5%)” and the “UN: uncharacterized CNS activity” value is reported as “+++ (25%≤ +++ <50%)”.
Turning to `CNC[C@H]1OCCc2c(OC)cccc21` [Example 62, (S)-1-(5-methoxyisochroman-1-yl)-N-methylmethanamine], the minimal effective dose lay in the range of 10 to 30 mg/kg, the “AD: ADHD (SmartCube probability)” value is “+ (LOQ≤ + <5%)”, the “AG: analgesic (SmartCube probability)” value is listed as “++ (5%≤ ++ <25%)” and the “AX: anxiolytic (SmartCube probability)” value was “++++ (50%≤ ++++)”. Also, the “CE: cognitive enhancer” value is given as “+ (LOQ≤ + <5%)”, the “DP: anti-depressant” value is given as “+ (LOQ≤ + <5%)”, the “MS: mood stabilizer” value is on record as “+ (LOQ≤ + <5%)” and the “PS: anti-psychotic” value is “+ (LOQ≤ + <5%)”. For the same molecule, the “SD: sedative hypnotic” value is reported as “+ (LOQ≤ + <5%)” and the “UN: uncharacterized CNS activity” value is listed as “++ (5%≤ ++ <25%)”.
On to `CNC[C@@H]1OCC(C)(C)c2ccccc21` [Example 24, (R)-1-(4,4-dimethylisochroman-1-yl)-N-methylmethanamine], for which the minimal effective dose is under 3 mg/kg, the “AD: ADHD (SmartCube probability)” value is reported as “+ (LOQ≤ + <5%)”, the “AG: analgesic (SmartCube probability)” value is on record as “++ (5%≤ ++ <25%)” and the “AX: anxiolytic (SmartCube probability)” value is “++ (5%≤ ++ <25%)”. In addition, the “CE: cognitive enhancer” value is recorded as “++ (5%≤ ++ <25%)”, the “DP: anti-depressant” value was “++ (5%≤ ++ <25%)”, the “MS: mood stabilizer” value is listed as “+ (LOQ≤ + <5%)” and the “PS: anti-psychotic” value is on record as “+++ (25%≤ +++ <50%)”. The “SD: sedative hypnotic” value is given as “++ (5%≤ ++ <25%)” and the “UN: uncharacterized CNS activity” value is recorded as “+++ (25%≤ +++ <50%)”.
As to `Cc1cccc2c1[C@H](CN)OCC2` [Example 75, (R)-(8-methylisochroman-1-yl)methanamine], the minimal effective dose is 3 to 10 mg/kg, the “AD: ADHD (SmartCube probability)” value was “+ (LOQ≤ + <5%)”, the “AG: analgesic (SmartCube probability)” value is given as “++ (5%≤ ++ <25%)” and the “AX: anxiolytic (SmartCube probability)” value is “++ (5%≤ ++ <25%)”. Besides, the “CE: cognitive enhancer” value is on record as “++ (5%≤ ++ <25%)”, the “DP: anti-depressant” value was “++ (5%≤ ++ <25%)”, the “MS: mood stabilizer” value is on record as “+ (LOQ≤ + <5%)” and the “PS: anti-psychotic” value is given as “++ (5%≤ ++ <25%)”. In addition, the “SD: sedative hypnotic” value is on record as “+ (LOQ≤ + <5%)” and the “UN: uncharacterized CNS activity” value is recorded as “++++ (50%≤ ++++)”.
As for `NC[C@H]1OCCc2cccc(Cl)c21` [Example 70, (S)-(8-chloroisochroman-1-yl)methanamine], the minimal effective dose is 3 to 10 mg/kg, the “AD: ADHD (SmartCube probability)” value was “+ (LOQ≤ + <5%)”, the “AG: analgesic (SmartCube probability)” value is on record as “++ (5%≤ ++ <25%)” and the “AX: anxiolytic (SmartCube probability)” value is “++ (5%≤ ++ <25%)”. For the same molecule, the “CE: cognitive enhancer” value is on record as “++ (5%≤ ++ <25%)”, the “DP: anti-depressant” value was “++ (5%≤ ++ <25%)”, the “MS: mood stabilizer” value was “+ (LOQ≤ + <5%)” and the “PS: anti-psychotic” value is on record as “+++ (25%≤ +++ <50%)”. The “SD: sedative hypnotic” value is “++ (5%≤ ++ <25%)” and the “UN: uncharacterized CNS activity” value is “+++ (25%≤ +++ <50%)”.
`CNC[C@@H]1OCCc2c(OC)cccc21` [Example 63, (R)-1-(5-methoxyisochroman-1-yl)-N-methylmethanamine]: the “POTENCY (minimal effective dose, MED)” value is reported as “A-B”; the “AD: ADHD (SmartCube probability)” value is “++ (5%≤ ++ <25%)”; the “AG: analgesic (SmartCube probability)” value is “+ (LOQ≤ + <5%)”; the “AX: anxiolytic (SmartCube probability)” value is recorded as “++ (5%≤ ++ <25%)”. The “CE: cognitive enhancer” value is on record as “+ (LOQ≤ + <5%)”, the “DP: anti-depressant” value is on record as “++++ (50%≤ ++++)”, the “MS: mood stabilizer” value is on record as “+ (LOQ≤ + <5%)” and the “PS: anti-psychotic” value was “+ (LOQ≤ + <5%)”. Further, the “SD: sedative hypnotic” value is on record as “++ (5%≤ ++ <25%)” and the “UN: uncharacterized CNS activity” value is on record as “++++ (50%≤ ++++)”.
